Laboratory results taken from US20200222474A1, “COMPOSITIONS AND METHODS FOR INCREASING PHYTOCHEMICAL BIOAVAILABLITY AND BIOACTIVITY” (North Carolina State University, priority 2017, published 2020).

Columns and labels:
[1] = Solubility in growth experiments (observation); format: physicochemical; conditions: in growth medium; precluded OD600 nm as growth metric
Method: (§1) The growth of L. acidophilus NCFM was evaluated on twelve chemically diverse, nutritionally relevant and/or therapeutically active PGs 1; Table 1). FIG. 1A provides the structures and common sources of plant glycoside substrates described herein. The compounds that support growth of Lactobacillus acidophilus are in green. RI: β-D-Glcp; R2: Gentiobioside (β-D-Glcp-(1,6)-D-Glcp); R3: Rutinoside (α-L-Rhaf-(1,6)-D-Glcp). The graph in FIG. 1B depicts plant glycoside utilization analyzed by mass spectrometry and the growth as the maximum OD600. Due to the low solubility of polydatin, OD600 cannot be used as a growth metric and utilization of this compound is confirmed by the production of lactate as well as a high utilization level based on the metabolite analysis.

L. acidophilus NCFM [2] = test: Plant glycoside uptake and metabolite analysis of L. acidophilus NCFM culture supernatants by UHPLC-DAD-Q-TOF-MS; format: cell-based, Lactobacillus acidophilus
Method: (§2) For initial growth and gene expression studies, L. acidophilus NCFM was propagated three times in semi-defined medium (SDM) supplemented with either 1% or 0,5% (w/v) of the plant glycoside or carbohydrate (Table 1). For the RNA-seq analysis, cells were harvested by centrifugation (3,220×10 min, 25° C.) in the mid-exponential phase (OD600=0.6-0.8) and stored at −80° C. for subsequent RNA isolation. For the mass spectrometry metabolite analyses, 200 μt samples were taken at 0, 3, 6, 9, 12, and 24 hours of growth; cells were removed by centrifugation; and supernatants were stored at −80° C. for further analysis.
Analysis of plant glycoside uptake from L. acidophilus NCFM culture supernatants using mass spectrometry. The supernatants of L. acidophilus NCFM cultures grown on amygdalin, arbutin, esculin or salicin as carbon sources were analyzed during 24 hours by ultra-high performance liquid chromatography-diode array detection-quadruple time of flight mass spectrometry (UHPLC-DAD-Q-TOF-MS). Samples were diluted 1:20 (v/v) with methanol and an injection volume of […] was used. Separation was carried out on an Agilent Poroshell 120 phenyl-hexyl column (2.1×150 mm, 2.7 μm) using the Agilent Infinity 1290 UHPLC system (Agilent Technologies, Santa Clara, Calif., USA) equipped with a UV/vis spectrum diode array detector. Separation was performed at 0.35 mL min-1., 60° C. with a linear gradient consisting of water (A) and acetonitrile (B) both buffered with 20 mM formic acid, starting at 10% B and increased to 100% in 15 min where it was held for 2 min, returned to 10% in 0.1 min and kept for 3 min. MS detection was performed on an Agilent 6550 iFunnel QTOF MS equipped with Agilent Dual Jet Stream electrospray ion source with the drying gas temperature of 160° C. and gas flow of 13 L min^−1, whereas the sheath gas temperature was 300° C. and flow was 16 L min-1. Ionization was conducted in ESI-mode with capillary voltage set to 4000 V and nozzle voltage to 500 V. Mass spectra were recorded as centroid data for m/z 85-1700 in MS mode with an acquisition rate of 10 spectra s^−1. To avoid carry-over, the needle seat was back-flushed for 15 s at 4 mL min-1 with each of: i) isopropanol: 0.2% ammonium hydroxide (w/v) in water (1:1 v/v); ii) acetonitrile with 2% formic acid (w/v); iii) water with 2% formic acid. Data was processed with the Agilent Mass Hunter Qualitative Analysis B.07.00 software package (Agilent Technologies) and molar concentrations were obtained from standard curves of the plant glycosides and their main metabolites. Targeted compound searches were performed using lists of previously identified compounds plus standard chemical modifications.

L. acidophilus NCFM [3] = test: Growth of L. acidophilus NCFM on plant glycosides as single carbon source (OD600); format: cell-based, Lactobacillus acidophilus; conditions: verified by production of lactate and metabolite analysis
Method: as §2
(§3) Phenotypic growth assays were performed using 1% (v/v) overnight cultures of L. acidophilus strains (Table 2) and other Lactobacillus species (Table 3) grown on SDM supplemented with 1% (w/v) glucose to inoculate 200 μL of SDM supplemented with 1% (w/v) of the examined carbohydrate (0.5% in the case of esculin) in 96-well microplate wells (Corning Costar, Corning, N.Y., USA) in duplicate or triplicate wells, respectively. The microplates were sealed with clear adhesive film, incubated at 37° C. in a Fluostar Optima microplate reader (BMG Labtech, Cary, N.C., USA), and the cell optical density (OD600) was monitored for 30 hours.
as §1

NCK2422 (ΔLBA0725) = test: Phenotypic growth analysis of deletion mutant (PTS EIICBA); format: cell-based, Lactobacillus acidophilus
Method: as §3
(§4) Construction of gene deletion mutants. The L. acidophilus NCFM genes LBA0225 and LBA0726, both encoding P-Bgl of glycoside hydrolase family 1 (GH1) enzymes in addition to the LBA0227 and LBA0725 genes encoding an EIIC and an EIICBA components of two PTS systems, respectively, were deleted using the upp-based counterselectable gene replacement system. Briefly, in-frame deletions were constructed by amplifying 650-750 bp of the up- and downstream flanking regions of the deletion targets with two primer pairs (e.g., LBA0225A/LBA0225B and LBA0225C/LBA0225D; Table 4). The resulting purified products were joined by splicing using overlap extension PCR (SOE-PCR63) and amplified to establish the deletion alleles. The SOE-PCR products, that include flanking restriction enzyme sites, were cloned within the BamHI and SacI/EcoRI sites of the pTRK935 integration vector and transformed into E. coli EC101. The resulting recombinant plasmids (pTRK1113-6) were confirmed by DNA sequencing and electroporated into L. acidophilus NCK1910 (Table 2) that contains the pTRK669 helper plasmid, and the recovery of the single- and double-crossover recombinants was performed as previously described. Recombinants carrying the new gene deletion alleles were isolated by colony PCR using primer pairs denoted up/down (e.g., LBA0225up/LBA0225down), which anneal to the flanking regions of the amplicons. Sequence integrity and in-frame deletions were verified by DNA sequencing employing the aforementioned primer pairs and primer denoted mid (e.g., LBA0225mid). The mutations were in-frame deletions of 90-96% of the coding regions.
To establish the functional significance of these two loci, single deletions of each PTS EII and P-Bgl gene, and a double deletion of both P-Bgl genes were constructed using the upp-based counter-selectable gene replacement system (Table 2) and the growth phenotypes of the mutant strains were analyzed (FIG. 3). Phenotypic growth analyses of deletion mutants of EII PTS transporters (FIGS. 3A, 3C, 3E, 3G, and 3I) and phospho-β-glucosidase (FIGS. 3B, 3D, 3F, 3H, and 3J) on the β-glucosides esculin, salicin, amygdalin and the disaccharides gentiobiose and cellobiose. The background Aupp strain is shown as a grey fill graph and the growth of the mutant strains is shown as: PTS EIIC (LBA0227, pink triangle), the phospho-β-glucosidase (LBA0225, light blue triangles), the PTS EIICBA (LBA0725, yellow squares), the second phospho-β-glucosidase (LBA0726, lilac squares) and the double phospho-β-glucosidase mutant (LBA0225/LBA0726, black stars). The color scheme is consistent with that used for the gene loci in FIG. 2.

NCK2424 (ΔLBA0726) = test: Phenotypic growth analysis of deletion mutant (phospho-β-glucosidase); format: cell-based, Lactobacillus acidophilus; conditions: compared with background Δupp strain
Method: as §3
Construction of gene deletion mutants. The L. acidophilus NCFM genes LBA0225 and LBA0726, both encoding P-Bgl of glycoside hydrolase family 1 (GH1) enzymes in addition to the LBA0227 and LBA0725 genes encoding an EIIC and an EIICBA components of two PTS systems, respectively, were deleted using the upp-based counterselectable gene replacement system. Briefly, in-frame deletions were constructed by amplifying 650-750 bp of the up- and downstream flanking regions of the deletion targets with two primer pairs (e.g., LBA0225A/LBA0225B and LBA0225C/LBA0225D; Table 4). The resulting purified products were joined by splicing using overlap extension PCR (SOE-PCR63) and amplified to establish the deletion alleles. The SOE-PCR products, that include flanking restriction enzyme sites, were cloned within the BamHI and SacI/EcoRI sites of the pTRK935 integration vector and transformed into E. coli EC101. […]
(§5) To establish the functional significance of these two loci, single deletions of each PTS EII and P-Bgl gene, and a double deletion of both P-Bgl genes were constructed using the upp-based counter-selectable gene replacement system (Table 2) and the growth phenotypes of the mutant strains were analyzed (FIG. 3). […]

NCK2418 (ΔLBA0227) = test: Phenotypic growth analysis of deletion mutant (PTS EIIC); format: cell-based, Lactobacillus acidophilus; conditions: compared with background Δupp strain
Method: as §3, §4, §5

| Compound | solubility [1] | aglycone / main metabolite identified in culture supernatant (L. acidophilus NCFM [2]; L. acidophilus NCFM growing on the glycoside, up to 24 h) | Catabolism based on MS (L. acidophilus NCFM [2]; growth concentration 0.5% (w/v), qualitative: depletion of the plant glycoside and/or appearance of its metabolites) | growth on compound (OD600 not usable) (L. acidophilus NCFM [3]) | reduction of growth on inactivation of the EIICBA (LBA0725) (NCK2422 (ΔLBA0725)) | growth of the ΔLBA0725 mutant (inactive PTS EIICBA) (NCK2422 (ΔLBA0725); compared with background Δupp strain) | growth of the ΔLBA0726 mutant (P-Bgl) (NCK2424 (ΔLBA0726)) | growth of the ΔLBA0227 mutant (inactive EIIC) (NCK2418 (ΔLBA0227)) |
| --- | --- | --- | --- | --- | --- | --- | --- | --- |
| OC[C@H]1O[C@@H](Oc2cc(O)cc(/C=C/c3ccc(O)cc3)c2)[C@H](O)[C@@H](O)[C@@H]1O [Polydatin] | poor solubility | resveratrol | Yes | verified by production of lactate and metabolite analysis |  |  |  |  |
| gentiobiose [reference compound] |  |  |  |  | about 50% | moderately reduced | unaffected | abolished |
